The target of data set [1] is T1, VLA-4 (Mus musculus, UniProt P09055+Q00651).
T1 construct: from tissue; host or cells: mouse spleen cells
Kind of data set: VCAM-Ig Competitive Binding Assay on mouse splenocytes. The following applies: Mn+2.

In data set [2] the test system is panel of radioligand, enzyme, and functional assays. Kind of data set: Panlabs ProfilingScreen, DiscoveryScreen, Immunoscreen and Cerep membrane receptor panel. The method, then:
oMePUPA-V was tested in the Panlabs ProfilingScreen, DiscoveryScreen, and Immunoscreen panel of radioligand, enzyme, and functional assays and in the Cerep membrane receptor panel.

Data set [3] has as its system mouse contact hypersensitivity. In words: DNFB contact hypersensitivity model, ear swelling. As to conditions: 0.03 or 0.3 mg/kg enterally 4 hours after DNFB challenge, measured 24 hours after challenge. The class given is in vivo, mice. As for the experimental part:
Twenty gram female virus-free Balb/c mice (Jackson Laboratories, Bar Harbor, Me.) housed four to a cage in microisolator cages in Biogen's virus-free animal facility and receiving ad libitum mouse chow and tap water were used for all studies. Mice were anesthetized with ketamine:xylazine (90:10 mg/kg, i.p.). A 3 cm^2 patch of abdominal skin, xiphoid to pubis was exposed by closely shaving the far and the skin was scrubbed with 70% ethanol. A 25 μL volume of 0.5% DNFB in 4:1 v/v acetone:olive oil vehicle is uniformly applied to the bare abdominal skin. The skin was lightly scratched with the applying pipette tip to encourage mild inflammation. […] Twenty four hours after challenge, mice were again anesthetized with ketamine:xylazine and the ear thickness of both ears measured with an engineer's micrometer to an accuracy of 10^−4 inches.
Compounds (100 μL) or appropriate vehicle (Dimethylsulfoxide [DMSO] in isotonic phosphate buffered saline [PBS], 100 μL) were administered orally by gavage 4 hours after challenging the immune response on Day 5. […] The ear swelling response for each mouse was calculated as the difference between its vehicle- and DNFB-challenged ear thickness at 24 hours after challenge. […] Inhibition of the ear swelling response was determined by comparison of treated groups with their vehicle control group. […] Values are expressed as means ± standard error of the mean (SEM).

The nature of data set [4]: Proteolytic stability, in vitro metabolism and in vivo PK studies. The class given is in vitro ADME. The following applies: in vitro metabolism studies and in vivo PK studies in rat, dog and sheep.
In data set [5] the target is T2, VLA-4 (Homo sapiens, UniProt P05556+P13612). Kind of data set: VLA-4-VCAM-Ig binding (Table 1; VLA-4 binding assays). The arrangement: endogenous in cells; host or cells: Jurkat (human T cell line). As to conditions: read-out: IC50 against VLA-4-VCAM-Ig binding. From the text:
A direct binding assay may also be employed to quantitate the inhibitory activity of the compounds of this invention. In this assay, a VCAM-IgG fusion protein containing the first two immunoglobulin domains of VCAM (D1D2) attached above the hinge region of an IgG1 molecule (“VCAM 2D-IgG”), is conjugated to a marker enzyme, such as alkaline phosphatase (“AP”). The synthesis of this VCAM-IgG fusion is described in PCT publication WO 90/13300, the disclosure of which is herein incorporated by reference. The conjugation of that fusion to a marker enzyme is achieved by cross-linking methods well-known in the art.
The VCAM-IgG enzyme conjugate is then placed in the wells of a multi-well filtration plate, such as that contained in the Millipore Multiscreen Assay System (Millipore Corp., Bedford, Ma.). Varying concentrations of the test inhibitory compound are then added to the wells followed by addition of VLA-4-expressing cells. The cells, compound and VCAM-IgG enzyme conjugate are mixed together and allowed to incubate at room temperature.
Following incubation, the wells are vacuum drained, leaving behind the cells and any bound VCAM. Quantitation of bound VCAM is determined by adding an appropriate colorimetric substrate for the enzyme conjugated to VCAM-IgG and determining the amount of reaction product. Decreased reaction product indicates increased binding inhibitory activity. […]

In data set [6] the target is T2, VLA-4. Kind of data set: Purified VLA-4 Protein/Protein Assay with VCAM-Ig-AP. Type of data set: binding. The arrangement: endogenous in cells; host or cells: Jurkat (human T cell line). As for the experimental part:
VLA-4 was purified from a detergent extract of a high expressing subclone of α4-transfected K562 cells by antibody affinity chromatography and immobilized on microtiter wells to establish a protein/protein competitive binding assay. VCAM-Ig-AP was bound to the purified VLA-4-coated plate in the absence or presence of oMePUPA-V (Lot #2) and 1 mM MnCl2. Plates were read at 405 nm and the data were analyzed using SoftMax v. 2.32 software.

A short description of data set [7]: Formulated / solution stability (HPLC). Type of data set: physicochemical.
Data set [8] deals with Ascaris suum-sensitive sheep. In words: Single dose irritancy, airways resistance after aerosol in sheep. Type of data set: in vivo. The following applies: single aerosol doses 0.01-3 mg. As for the experimental part:
FIG. 2: Sheep, naturally sensitive to Ascaris suum, were challenged with an aerosol administration of oMePUPA-V at the doses indicated or an aerosol of Ascaris suum. Changes in airways resistance were measured following aerosol challenge and peak specific lung resistance (cm H2O/sec) after challenge was compared to baseline values. *=p<0.05 compared to PBS control, one-way analysis of variance, followed by Dunnett's test for multiple comparison to a control group. Indicates a statistically significant increase in peak specific lung resistance compared to PBS control group.

T2 sequence (P13612 34-1032): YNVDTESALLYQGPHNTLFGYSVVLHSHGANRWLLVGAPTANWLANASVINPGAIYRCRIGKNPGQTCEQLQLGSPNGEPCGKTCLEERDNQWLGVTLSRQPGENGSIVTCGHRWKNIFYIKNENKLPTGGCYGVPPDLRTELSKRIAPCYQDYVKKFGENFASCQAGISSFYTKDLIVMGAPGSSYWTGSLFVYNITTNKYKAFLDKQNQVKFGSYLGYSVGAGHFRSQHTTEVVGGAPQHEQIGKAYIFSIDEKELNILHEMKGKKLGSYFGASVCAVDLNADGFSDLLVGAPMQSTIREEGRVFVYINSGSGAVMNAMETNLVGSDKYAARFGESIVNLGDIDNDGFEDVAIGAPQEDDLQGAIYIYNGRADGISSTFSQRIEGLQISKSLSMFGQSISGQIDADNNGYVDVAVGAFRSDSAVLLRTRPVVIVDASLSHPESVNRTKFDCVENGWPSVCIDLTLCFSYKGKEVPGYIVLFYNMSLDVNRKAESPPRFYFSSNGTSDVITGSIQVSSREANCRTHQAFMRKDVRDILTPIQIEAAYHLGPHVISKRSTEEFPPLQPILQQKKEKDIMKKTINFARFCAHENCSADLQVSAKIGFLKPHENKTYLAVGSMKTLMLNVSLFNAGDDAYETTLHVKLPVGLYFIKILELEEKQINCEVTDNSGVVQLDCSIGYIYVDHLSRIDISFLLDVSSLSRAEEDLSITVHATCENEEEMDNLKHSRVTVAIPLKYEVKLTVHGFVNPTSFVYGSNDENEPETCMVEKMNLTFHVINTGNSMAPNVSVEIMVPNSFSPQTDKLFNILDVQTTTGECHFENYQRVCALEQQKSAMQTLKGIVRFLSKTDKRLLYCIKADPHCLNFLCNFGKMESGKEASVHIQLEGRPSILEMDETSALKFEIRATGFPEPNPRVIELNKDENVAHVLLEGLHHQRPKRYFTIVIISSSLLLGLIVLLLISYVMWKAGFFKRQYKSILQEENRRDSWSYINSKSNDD
T2 sequence (P05556 21-798): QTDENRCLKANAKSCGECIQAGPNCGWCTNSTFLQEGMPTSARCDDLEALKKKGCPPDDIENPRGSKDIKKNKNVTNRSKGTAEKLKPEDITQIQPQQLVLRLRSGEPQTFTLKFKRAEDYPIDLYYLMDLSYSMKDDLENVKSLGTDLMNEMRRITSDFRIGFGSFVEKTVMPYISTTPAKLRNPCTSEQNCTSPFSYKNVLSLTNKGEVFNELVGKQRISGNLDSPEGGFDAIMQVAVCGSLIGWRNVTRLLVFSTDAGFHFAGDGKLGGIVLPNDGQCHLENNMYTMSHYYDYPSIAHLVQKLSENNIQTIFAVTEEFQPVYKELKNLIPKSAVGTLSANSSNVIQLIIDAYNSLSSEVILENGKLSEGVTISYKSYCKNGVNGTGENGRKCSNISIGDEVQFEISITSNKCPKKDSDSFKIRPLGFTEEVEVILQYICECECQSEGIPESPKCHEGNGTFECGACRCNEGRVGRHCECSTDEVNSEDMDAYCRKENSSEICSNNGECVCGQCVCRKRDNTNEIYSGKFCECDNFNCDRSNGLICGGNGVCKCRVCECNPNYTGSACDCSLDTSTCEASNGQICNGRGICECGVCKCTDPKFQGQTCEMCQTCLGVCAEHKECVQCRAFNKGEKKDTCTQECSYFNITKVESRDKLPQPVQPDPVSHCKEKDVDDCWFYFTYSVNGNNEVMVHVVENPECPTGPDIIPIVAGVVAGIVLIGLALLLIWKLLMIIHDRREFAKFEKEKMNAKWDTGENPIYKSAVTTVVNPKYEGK
T1 sequence (Q00651 41-1039): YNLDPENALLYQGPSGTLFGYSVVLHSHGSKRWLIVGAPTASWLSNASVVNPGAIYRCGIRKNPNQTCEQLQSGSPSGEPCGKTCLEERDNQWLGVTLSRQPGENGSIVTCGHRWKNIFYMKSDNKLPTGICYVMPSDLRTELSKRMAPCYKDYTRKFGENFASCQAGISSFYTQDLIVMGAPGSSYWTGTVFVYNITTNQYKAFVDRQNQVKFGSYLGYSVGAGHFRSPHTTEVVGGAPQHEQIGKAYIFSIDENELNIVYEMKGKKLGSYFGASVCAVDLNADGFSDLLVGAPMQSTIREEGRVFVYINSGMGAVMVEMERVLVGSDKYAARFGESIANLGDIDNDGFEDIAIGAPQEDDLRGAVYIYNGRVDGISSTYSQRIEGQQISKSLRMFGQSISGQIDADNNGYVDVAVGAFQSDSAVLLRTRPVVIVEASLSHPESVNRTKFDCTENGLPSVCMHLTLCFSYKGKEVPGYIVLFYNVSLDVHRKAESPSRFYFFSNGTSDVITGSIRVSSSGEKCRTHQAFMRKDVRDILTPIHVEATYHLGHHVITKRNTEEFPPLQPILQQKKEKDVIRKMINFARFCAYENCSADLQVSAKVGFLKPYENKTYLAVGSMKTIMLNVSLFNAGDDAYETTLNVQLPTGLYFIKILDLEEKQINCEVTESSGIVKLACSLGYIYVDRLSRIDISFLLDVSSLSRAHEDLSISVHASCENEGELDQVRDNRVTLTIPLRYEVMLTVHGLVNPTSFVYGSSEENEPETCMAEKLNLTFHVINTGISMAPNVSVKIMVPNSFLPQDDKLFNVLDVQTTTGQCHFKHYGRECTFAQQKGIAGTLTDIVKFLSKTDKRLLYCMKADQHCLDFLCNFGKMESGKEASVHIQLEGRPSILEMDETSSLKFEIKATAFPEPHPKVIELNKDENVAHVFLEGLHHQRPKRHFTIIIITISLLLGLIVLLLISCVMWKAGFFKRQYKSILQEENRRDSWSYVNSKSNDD
T1 sequence (P09055 21-798): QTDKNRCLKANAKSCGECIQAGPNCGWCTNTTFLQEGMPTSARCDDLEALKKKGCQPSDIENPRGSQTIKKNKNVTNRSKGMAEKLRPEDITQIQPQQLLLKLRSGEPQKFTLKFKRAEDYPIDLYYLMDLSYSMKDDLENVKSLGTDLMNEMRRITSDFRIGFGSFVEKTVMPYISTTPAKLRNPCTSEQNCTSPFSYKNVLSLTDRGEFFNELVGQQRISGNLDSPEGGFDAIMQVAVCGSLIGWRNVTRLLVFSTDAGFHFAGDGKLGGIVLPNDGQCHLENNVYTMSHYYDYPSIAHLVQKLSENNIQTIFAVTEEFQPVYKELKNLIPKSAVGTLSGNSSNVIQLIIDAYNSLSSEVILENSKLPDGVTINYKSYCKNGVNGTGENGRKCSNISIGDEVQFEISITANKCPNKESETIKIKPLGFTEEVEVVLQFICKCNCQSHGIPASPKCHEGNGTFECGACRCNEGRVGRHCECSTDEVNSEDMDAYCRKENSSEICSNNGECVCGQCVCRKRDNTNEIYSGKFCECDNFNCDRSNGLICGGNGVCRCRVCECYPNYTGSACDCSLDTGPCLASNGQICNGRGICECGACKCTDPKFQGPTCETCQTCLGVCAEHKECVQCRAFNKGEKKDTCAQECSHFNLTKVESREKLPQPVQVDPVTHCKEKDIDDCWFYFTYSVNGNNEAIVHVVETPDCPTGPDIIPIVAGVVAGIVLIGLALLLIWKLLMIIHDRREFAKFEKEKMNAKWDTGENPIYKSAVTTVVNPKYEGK

`Cc1ccccc1NC(=O)Nc1ccc(CC(=O)N2CCC[C@H]2C(=O)N[C@H](C)CC(=O)O)cc1` [oMePUPA-V]: the concentration for half-maximal inhibition (IC50) on VLA-4 [1] was 4 ± 2 nM; on VLA-4 [5], 2.7 nM; on VLA-4 [6] (1 mM MnCl2, read-out: IC50, Purified VLA-4 VCAM-Ig binding), 0.1 nM. Moreover, in data set [2], the “In vitro pharma screen 85 tests” value is listed as “clean”. Besides, the “activity in Panlabs and Cerep panels” value in data set [2] (at 10 μM) is reported as “No significant activity”. Besides, the “inhibition of ear swelling response (in words)” value in data set [3] was “significantly inhibited”. Further, in [4], the proteolytic stability result was “proteolytically stable”. Moreover, the “potency on isolated VLA-4 relative to Jurkat cells in the binding assay” value at VLA-4 [6] (in the presence of Mn+2) is listed as 80 fold. In data set [7], the “Formulated stability (40° C.), time stable” value is given as “stable >4 wk”. The “irritant effect, change in airways resistance compared to baseline” value in [8] was “lack of change in airways resistance compared to baseline resistance”. For the same molecule, the “Ames test (mutagenicity)” value in the data set “Ames test (mutagenicity)” is listed as “clean”.

By IC50 is commonly meant the concentration at which inhibition is half-maximal.

These data come from patent publication US6495525B1, “VLA-4 inhibitor: oMePUPA-V” (Biogen, Inc., priority 1998, dated 2002).
